Experimental data as given in a compilation of properties of binary mixtures (doi:10.1016/j.molliq.2017.06.029).

Experiment: xn = mol fraction of the nth substance listed
Conditions: 100 kPa

OCc1ccco1 + CC(=O)[O-].CC[n+]1ccn(C)c1
speed of sound [m/s]
Conditions	298.15 K	303.15 K	308.15 K	313.15 K	318.15 K
x2 = 0	1447	1431	1413	1394	1375
x2 = 0.0572	1487	1471	1452	1430	–
x2 = 0.1058	1522	1506	1487	1465	1433
x2 = 0.1534	1548	1532	–	1490	–
x2 = 0.2087	1573	1557	1540	1519	–
x2 = 0.3068	–	–	1577	–	1534
x2 = 0.408	1637	1623	1609	1595	1578
x2 = 0.5063	–	–	1633	1620	1606
x2 = 0.5513	1670	1656	1643	1629	–
x2 = 0.6031	1680	1666	–	–	1627
x2 = 0.7053	1696	1683	–	1657	–
x2 = 0.8045	1711	–	1685	1673	1660
x2 = 0.8441	1716	1704	1691	1678	1666
x2 = 0.902	1723	–	1699	1686	1674

CC(=O)[O-].CC[n+]1ccn(C)c1 + OCc1ccco1
x1 = 1
Conditions	speed of sound [m/s]
298.15 K	1735
303.15 K	1722
308.15 K	1710
313.15 K	1698
318.15 K	1686
